{"source": "paper PMC4615156", "about": "(Nucleus, 2014)", "target": "PCNA (Homo sapiens, UniProt P12004)", "sequence (P12004 whole entry)": "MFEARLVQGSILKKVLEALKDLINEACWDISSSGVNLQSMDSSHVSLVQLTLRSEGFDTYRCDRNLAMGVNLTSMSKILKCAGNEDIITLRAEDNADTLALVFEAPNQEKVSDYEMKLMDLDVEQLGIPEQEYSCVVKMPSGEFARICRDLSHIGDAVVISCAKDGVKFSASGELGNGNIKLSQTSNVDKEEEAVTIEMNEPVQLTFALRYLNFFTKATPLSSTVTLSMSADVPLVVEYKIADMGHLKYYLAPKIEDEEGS", "assay": "Fixation of live cells labeled with the cell-permeable PIP", "assay_type": "cell-based", "conditions": "PCNA expressing cells labeled live, then 3.7% formaldehyde", "data": [{"substance": "RRRQRRKKRG-C C-SAVLQKKITDYFHPKKG-EDA-TAMRA (disulfide) [TAT(-SS-)PL-R]", "values": [{"measurement": "Labeling of repair sites after fixation of live labeled cells", "value": "still marks repair sites"}]}]}
